Structures can show the parent of a compound that is named as a salt. Where two headings read alike, the source gives them in different places.
How the values were obtained:
Cqui\Or21 + Cqui\Orco = test: Inhibition of heteromeric OR in oocytes (3-methylindole or OLC12 activation); type: cell-based, Culex quinquefasciatus; conditions: 100 µM antagonist; for inhibition of odorant activation: 30 nM 3-methylindole; for antagonism of OLC12 (Orco agonist) activation of heteromeric OR: 3 µM OLC12
Experimental: (§1) An automated parallel electrophysiology system (OpusExpress 6000 A, Molecular Devices) was used to record Orco agonist (OLC12) or odorant induced currents under two-electrode voltage clamp. Oocytes were perfused with ND96 (in mM: 96 NaCl, 2 KCl, 1 CaCl2, 1 MgCl2, 5 HEPES, pH 7.4). DMSO was used to prepare 1 M or 100 mM stock solutions of test compounds, which were then diluted in ND96 on the day of the experiment. Compounds were applied at a flow rate of 1.0 mL/min, with extensive washing in ND96 at 4.6 mL/min between applications. Micropipettes with resistances of 0.2–2.0 MΩ were filled with 3 M KCl. The holding potential was −70 mV. Current responses were filtered (4-pole, Bessel, low pass) at 20 Hz (−3 db) and sampled at 100 Hz. OpusXpress 1.1 software (Molecular Devices) was used to capture and store current responses.
(§2) To measure the ability of Orco antagonists to inhibit odorant activation, oocytes expressing heteromeric ORs (Orco + ORX) were exposed to a 30 sec application of odorant followed by a 20 min wash. Oocytes were then exposed to a 90 sec application of Orco antagonist, immediately followed by a 30 sec co-application of Orco antagonist and odorant. The current response to odorant in the presence of Orco antagonist was compared to the preceding response to odorant alone and represented as a percentage. This value was then normalized to the value obtained when the assay was run in the absence of antagonist (sham).
(§3) Figure S3. Effects of Orco antagonists on heteromeric ORs. […]
heteromeric complexes of odorant specificity subunits and Orco. The Orco antagonists tested were 3-isopropyl-6-methyl-catechol (3 I6 MC), a potent compound from the input training set, and two compounds id e ntified in Fig u re 4 an d Ta b le 1 : 2-tert-butyl-6-methylphenol (B MP ) and linalyl formate (LF) . These compounds were tested for antagonist activity against odorant activation of three ORs from Anopheles gambiae (Agam\Or28 + Agam\Orco, Agam\Or39 + A ga m\Orco, Agam\Or65 + A ga m\Orco), o ne O R fro m Culex quinquefasciatus, the southern house mosquito (Cq u i\Or21 + Cqui\Orco) an d on e O R f ro m Drosophila melanogaster (Dme l\Or35a + Dmel\Orco). Each OR was activated by its cognate odorant agonist applied at an approximate EC50 concentration. […]
SEM (n = 4). […] Statistical significance of the data in each panel was assessed by one-way analysis of variance followed by Dunnett’s multiple comparison test using the pre-normalized values for each antagonist compared to the values obtained in the sham recordings (*, p < 0 .0 5; **, p < 0. 01; ***, p < 0 . 00 1 ).

Agam\Orco = molecular target: T1, Agam\Orco (Anopheles gambiae, UniProt Q7QCC7); test: cell-based; type: cell-based
T1 construct: expressed in transfected cells; host or cells: Xenopus laevis oocytes injected with capped cRNA (plasmid pT7TS, gift of L. Zwiebel)
T1 sequence (Q7QCC7 1-478): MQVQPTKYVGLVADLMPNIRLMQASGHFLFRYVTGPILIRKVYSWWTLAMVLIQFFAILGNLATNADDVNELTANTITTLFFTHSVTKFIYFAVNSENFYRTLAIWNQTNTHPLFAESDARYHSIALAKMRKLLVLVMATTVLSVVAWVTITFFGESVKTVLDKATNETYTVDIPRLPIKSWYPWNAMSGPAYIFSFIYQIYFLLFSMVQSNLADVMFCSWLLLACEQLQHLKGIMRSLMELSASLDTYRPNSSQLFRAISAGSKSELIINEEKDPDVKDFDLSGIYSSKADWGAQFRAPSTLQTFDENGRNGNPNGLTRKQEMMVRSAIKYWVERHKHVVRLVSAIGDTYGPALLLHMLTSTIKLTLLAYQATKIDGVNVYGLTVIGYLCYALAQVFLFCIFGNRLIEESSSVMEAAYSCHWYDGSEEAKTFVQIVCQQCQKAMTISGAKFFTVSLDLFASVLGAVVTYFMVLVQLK
How it was run: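 Xenopus oocytes injected with 25 ng Agam\Orco cRNA, clamped at −70 mV in ND96 by two-electrode voltage clamp. After two 60 s pulses of 30 μM OLC12, compound applied 90 s then co-applied with OLC12 60 s; response was given as percent of prior OLC12 responses, sham-normalized.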

Agam\Or39 + Agam\Orco = molecular target: T2, Agam\Or39 + Agam\Orco (Anopheles gambiae, UniProt Q7QCC7); test: Inhibition of heteromeric OR in oocytes (6-methyl-5-hepten-2-one activation); type: cell-based; conditions: 100 µM antagonist; 10 µM 6-methyl-5-hepten-2-one
T2 construct: expressed in transfected cells; host or cells: Xenopus laevis oocytes
T2 sequence (Q7QCC7 1-478): T1 sequence (Q7QCC7 1-478)
Experimental: as §1, §2, §3
heteromeric complexes of odorant specificity subunits and Orco. The Orco antagonists tested were 3-isopropyl-6-methyl-catechol (3 I6 MC), a potent compound from the input training set, and two compounds id e ntified in Fig u re 4 an d Ta b le 1 : 2-tert-butyl-6-methylphenol (B MP ) and linalyl formate (LF) . […]
Statistical significance of the data in each panel was assessed by one-way analysis of variance followed by Dunnett’s […]

SMILES	inhibition of odorant activation (Cqui\Or21 + Cqui\Orco)	antagonism of OLC12 (Orco agonist) activation of heteromeric OR (Cqui\Or21 + Cqui\Orco)	more potent than LF (Agam\Orco)	IC50 (Agam\Orco; 10 µM OLC12, n = 4-7, read-out: IC50 for inhibition of Agam\Orco activation by 10 µM OLC12)	IC50 (Agam\Orco; 100 µM OLC12, n = 3-9, read-out: IC50 for inhibition of Agam\Orco activation by 100 µM OLC12)	mechanism of inhibition of Orco agonist (OLC12) responses (Agam\Orco; 10 vs 100 µM OLC12 shifts inhibition curve)	IC50 (Agam\Orco; Table 1, inhibition of Agam\Orco activated by 30 µM OLC12, mean ± SEM (n = 3–8), read-out: IC50)	inhibition of odorant activation (Agam\Or39 + Agam\Orco)	inhibition of OLC12 activation (Agam\Orco; 100 µM compound, 30 µM OLC12)	IC50 (Agam\Orco; Agam\Orco activated by 30 µM OLC12, read-out: IC50)	IC50 (Agam\Orco; read-out: IC50)
Cc1cccc(C(C)(C)C)c1O [BMP, 2-tert-butyl-6-methylphenol]	able to inhibit odorant activation	able to antagonize OLC12	5 fold	12 ± 2 µM	137 ± 38 µM	competitive	48 ± 5 µM	able to inhibit odorant activation	–	–	–
Cc1ccc(C(C)C)c(O)c1O [3I6MC, 3-isopropyl-6-methyl catechol]	could inhibit odorant activation	could antagonize OLC12	–	–	–	–	–	could inhibit odorant activation	strongly inhibited	41 ± 7 µM	–
C=CC(C)(CCC=C(C)C)OC=O (centres unmarked) [LF, linalyl formate]	able to inhibit odorant activation	able to antagonize OLC12	–	–	–	–	–	able to inhibit odorant activation	–	–	251 ± 39 µM

Reference: PMC6411751, “Use of machine learning to identify novel, behaviorally active antagonists of the insect odorant receptor co-receptor (Orco) subunit” (Scientific Reports, 2019)
